Assay results taken from patent US20060160887A1, “Medicinal composition” (Kyowa Hakko Kogyo Co., Ltd., priority 2003, published 2006).

Tests used:
[1] = system: premicturition contractions in rats with spinal cord injury; assay: Inhibitory activity on detrusor overactivity (cystometry, premicturition contractions) in rats with spinal cord injury; type: in vivo, rat; details: p.o.; for amplitude of premicturition contractions (relative value, before administration = 100) / frequency of premicturition contractions (relative value, before administration = 100): female SD rats with spinal cord injury, mean ± SE, n = 9; for effect on premicturition contractions (amplitude and frequency of premicturition contractions), in words: rats with spinal cord injury, summary of Tables 1 and 2
Description: Spinal cord was injured in the rats.

[2] = system: A-type potassium channels; details: known from WO02/078523 and WO02/078710; cited from earlier work
[3] = Compound (Ia) 0.01 mg/kg, after 1 hour
[4] = Compound (Ia) 0.01 mg/kg, after 3 hours
[5] = Compound (Ia) 0.01 mg/kg, after 5 hours
[6] = Tolterodine 3 mg/kg, after 1 hour
[7] = Tolterodine 3 mg/kg, after 3 hours
[8] = Tolterodine 3 mg/kg, after 5 hours

Row | SMILES | amplitude of premicturition contractions (relative value, before administration = 100) [1, 3] [%] | frequency of premicturition contractions (relative value, before administration = 100) [1, 3] [%] | amplitude of premicturition contractions (relative value, before administration = 100) [1, 4] [%] | frequency of premicturition contractions (relative value, before administration = 100) [1, 4] [%] | amplitude of premicturition contractions (relative value, before administration = 100) [1, 5] [%] | frequency of premicturition contractions (relative value, before administration = 100) [1, 5] [%] | effect on premicturition contractions (amplitude and frequency of premicturition contractions), in words [1] | effect on A-type potassium channels, in words [2] | amplitude of premicturition contractions (relative value, before administration = 100) [1, 6] [%] | frequency of premicturition contractions (relative value, before administration = 100) [1, 6] [%] | amplitude of premicturition contractions (relative value, before administration = 100) [1, 7] [%] | frequency of premicturition contractions (relative value, before administration = 100) [1, 7] [%] | amplitude of premicturition contractions (relative value, before administration = 100) [1, 8] [%] | frequency of premicturition contractions (relative value, before administration = 100) [1, 8] [%]
1 | C[C@](O)(C(=O)Nc1cccc2c1C(=O)c1sccc1CS2(=O)=O)C(F)(F)F [Compound (Ia), (S)-(+)-3,3,3-trifluoro-2-hydroxy-2-methyl-N-(5,5,10-trioxo-4,10-dihydrothieno[3,2-c][1]benzothiepin-9-yl) propanamide] | 71.9 ± 7.3 | 61.6 ± 9.8 | 62.6 ± 7.3 | 53.2 ± 4.9 | 65.1 ± 7.2 | 56.0 ± 8.3 | inhibited premicturition contractions | – | – | – | – | – | – | –
2 | CC(O)(C(=O)Nc1cccc2c1C(=O)c1sccc1CS2(=O)=O)C(F)(F)F (stereo not drawn) [Compound (I), 3,3,3-trifluoro-2-hydroxy-2-methyl-N-(5,5,10-trioxo-4,10-dihydrothieno[3,2-c][1]benzothiepin-9-yl)propanamide] | – | – | – | – | – | – | – | opening effect of A-type potassium channels | – | – | – | – | – | –
3 | Cc1ccc(O)c([C@H](CCN(C(C)C)C(C)C)c2ccccc2)c1 [Tolterodine, tolterodine, reference compound] | – | – | – | – | – | – | inhibited premicturition contractions | – | 105.9 ± 24.3 | 70.4 ± 11.6 | 79.6 ± 9.7 | 73.4 ± 8.2 | 70.3 ± 11.9 | 75.5 ± 12.0
